One assay concerns the target Fms kinase (Homo sapiens (Human), UniProt P07333). In words: Fms kinase biochemical activity assay (AlphaScreen, biotin-(E4Y)10 phosphorylation). The procedure, abridged: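 Recombinant human Fms phosphorylating 30 nM biotin-(E4Y)10 with 100 μM ATP (1 ng/well enzyme) in Hepes pH 7.5 buffer with Mg2+/Mn2+, 5% DMSO, 20 min at 30 °C. Phosphotyrosine detected by AlphaScreen streptavidin donor/PY20 acceptor beads; IC50 from signal versus compound concentration.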
On the technique in general: In Alpha technology, singlet oxygen from a donor bead excites a nearby acceptor bead.

Another assay deals with BCR-KIT/BaF3 cells (Homo sapiens, UniProt P10721). In words: BCR-KIT/BaF3 cell proliferation assay (ATPlite). It counts as cell-based. The following applies: read-out: BCR/BaF3 (IC50 μM) Kit. The procedure, abridged: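 BCR-KIT/BaF3 cells plated at 10,000/well in G418-containing medium without IL-3/WEHI; MV-4-11 at 25,000/well in medium with 10% FBS. Compound given as 8-point 1:3 titration, top 10 μM final, 3 days at 37 °C. Viability read as ATPlite luminescence; IC50 from concentration curve.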
BCR-KIT/BaF3 cells, sequence (P10721 26-976 limits assumed, change not shown): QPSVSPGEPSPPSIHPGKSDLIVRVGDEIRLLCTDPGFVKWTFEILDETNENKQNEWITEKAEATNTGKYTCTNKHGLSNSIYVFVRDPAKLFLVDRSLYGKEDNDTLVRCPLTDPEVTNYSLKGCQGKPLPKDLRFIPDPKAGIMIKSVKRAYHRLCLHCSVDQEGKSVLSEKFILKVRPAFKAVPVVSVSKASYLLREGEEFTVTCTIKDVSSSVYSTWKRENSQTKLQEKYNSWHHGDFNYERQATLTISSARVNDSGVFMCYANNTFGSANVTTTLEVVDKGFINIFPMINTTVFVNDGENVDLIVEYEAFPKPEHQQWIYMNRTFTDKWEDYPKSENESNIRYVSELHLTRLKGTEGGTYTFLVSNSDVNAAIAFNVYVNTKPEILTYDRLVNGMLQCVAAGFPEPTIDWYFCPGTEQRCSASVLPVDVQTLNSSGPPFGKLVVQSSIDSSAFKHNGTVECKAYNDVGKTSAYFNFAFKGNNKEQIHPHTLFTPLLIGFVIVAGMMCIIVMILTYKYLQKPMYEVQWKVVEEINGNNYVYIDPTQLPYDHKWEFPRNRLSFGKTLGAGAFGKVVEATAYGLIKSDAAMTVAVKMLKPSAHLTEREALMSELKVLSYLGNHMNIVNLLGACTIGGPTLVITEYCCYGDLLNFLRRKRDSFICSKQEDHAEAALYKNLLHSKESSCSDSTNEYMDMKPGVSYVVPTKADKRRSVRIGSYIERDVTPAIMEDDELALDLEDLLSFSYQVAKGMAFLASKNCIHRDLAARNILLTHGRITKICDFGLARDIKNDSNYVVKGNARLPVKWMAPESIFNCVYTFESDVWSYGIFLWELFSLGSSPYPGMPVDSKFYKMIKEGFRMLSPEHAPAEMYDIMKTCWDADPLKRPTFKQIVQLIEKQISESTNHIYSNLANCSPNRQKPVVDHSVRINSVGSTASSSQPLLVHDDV

Where [1] appears, read: read-out: Biochemical activity (IC50 μM) Fms.

SMILES strings stand for the structures. Where two headings read alike, the source gives them in different places.

Fms kinase, sequence (P07333 20-972): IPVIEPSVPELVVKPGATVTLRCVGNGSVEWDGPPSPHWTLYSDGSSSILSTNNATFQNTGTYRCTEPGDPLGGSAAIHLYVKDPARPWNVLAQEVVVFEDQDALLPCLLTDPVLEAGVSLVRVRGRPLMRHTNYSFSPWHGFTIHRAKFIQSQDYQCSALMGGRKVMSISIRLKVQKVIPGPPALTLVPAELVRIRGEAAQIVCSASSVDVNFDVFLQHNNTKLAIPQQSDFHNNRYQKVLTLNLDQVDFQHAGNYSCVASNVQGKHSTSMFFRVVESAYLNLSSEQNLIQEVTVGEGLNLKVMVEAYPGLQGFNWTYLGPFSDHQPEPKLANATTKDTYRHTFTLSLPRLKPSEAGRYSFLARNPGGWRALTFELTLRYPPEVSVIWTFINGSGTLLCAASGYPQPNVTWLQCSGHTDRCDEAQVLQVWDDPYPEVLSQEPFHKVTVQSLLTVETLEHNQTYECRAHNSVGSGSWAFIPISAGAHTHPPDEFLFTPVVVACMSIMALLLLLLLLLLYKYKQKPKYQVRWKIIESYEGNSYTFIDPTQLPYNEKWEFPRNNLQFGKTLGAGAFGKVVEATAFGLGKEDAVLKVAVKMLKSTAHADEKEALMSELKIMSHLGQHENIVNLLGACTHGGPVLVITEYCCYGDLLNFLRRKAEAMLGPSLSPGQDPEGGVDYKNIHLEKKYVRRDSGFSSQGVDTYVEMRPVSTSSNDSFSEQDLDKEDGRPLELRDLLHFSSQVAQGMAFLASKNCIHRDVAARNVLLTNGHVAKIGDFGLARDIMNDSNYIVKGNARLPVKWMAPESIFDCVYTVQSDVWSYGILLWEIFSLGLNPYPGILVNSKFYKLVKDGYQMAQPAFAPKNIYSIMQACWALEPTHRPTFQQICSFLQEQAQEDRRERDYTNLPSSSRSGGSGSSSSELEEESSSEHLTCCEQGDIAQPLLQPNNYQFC

In the case of `Cc1cnc2[nH]cc(Cc3cnc(NCc4cccc(N5CCCC5)n4)nc3)c2c1` [Compound P-2082, [5-(5-Methyl-1H-pyrrolo[2,3-b]pyridin-3-ylmethyl)-pyrimidin-2-yl]-(6-pyrrolidin-1-yl-pyridin-2-ylmethyl)-amine], the “Biochemical activity selectivity (Kit IC50/Fms IC50)” value on Fms kinase is under 20. Further, the IC50 was under 0.1 µM on Fms kinase (setting [1]) and over 0.1 µM at BCR-KIT/BaF3 cells.
On to `Cc1cnc2[nH]cc(Cc3ccc(NCc4ccc(Cl)nc4)nc3F)c2c1` [Compound P-2088, (6-Chloro-pyridin-3-ylmethyl)-[6-fluoro-5-(5-methyl-1H-pyrrolo[2,3-b]pyridin-3-ylmethyl)-pyridin-2-yl]-amine], for which the “Biochemical activity selectivity (Kit IC50/Fms IC50)” value on Fms kinase is given as over 20. Further, the IC50 is under 0.1 µM at Fms kinase (setting [1]) and over 0.1 µM at BCR-KIT/BaF3 cells.
Regarding `COc1ccc(CNc2ccc(Cc3c[nH]c4ncc(C)cc34)c(F)n2)c(OC)n1` [Compound P-2097, (2,6-Dimethoxy-pyridin-3-ylmethyl)-[6-fluoro-5-(5-methyl-1H-pyrrolo[2,3-b]pyridin-3-ylmethyl)-pyridin-2-yl]-amine], on Fms kinase, the “Biochemical activity selectivity (Kit IC50/Fms IC50)” value is on record as over 20. The IC50 at Fms kinase (setting [1]) was under 0.1 µM; on BCR-KIT/BaF3 cells, over 0.1 µM.
For `Cc1cnc2[nH]cc(Cc3ccc(NCc4cccnc4F)nc3F)c2c1` [Compound P-2103, [6-Fluoro-5-(5-methyl-1H-pyrrolo[2,3-b]pyridin-3-ylmethyl)-pyridin-2-yl]-(2-fluoro-pyridin-3-ylmethyl)-amine], in that order: over 20, under 0.1 µM and over 0.1 µM.
The like results for `Cc1cnc2[nH]cc(Cc3ccc(NCc4ccnc(F)c4)nc3F)c2c1` [Compound P-2118, [6-Fluoro-5-(5-methyl-1H-pyrrolo[2,3-b]pyridin-3-ylmethyl)-pyridin-2-yl]-(2-fluoro-pyridin-4-ylmethyl)-amine] were, in that order, over 20, under 0.1 µM and over 0.1 µM.
As to `Cc1ccc(CNc2ccc(Cc3c[nH]c4ncc(C)cc34)c(F)n2)nc1` [Compound P-2131, [6-Fluoro-5-(5-methyl-1H-pyrrolo[2,3-b]pyridin-3-ylmethyl)-pyridin-2-yl]-(5-methyl-pyridin-2-ylmethyl)-amine], the “Biochemical activity selectivity (Kit IC50/Fms IC50)” value at Fms kinase is over 20. The IC50 at Fms kinase (setting [1]) was under 0.1 µM; on BCR-KIT/BaF3 cells, over 0.1 µM.
In the case of `COc1ncccc1CNc1ncc(Cc2c[nH]c3ncc(C)cc23)cn1` [Compound P-2139, (2-Methoxy-pyridin-3-ylmethyl)-[5-(5-methyl-1H-pyrrolo[2,3-b]pyridin-3-ylmethyl)-pyrimidin-2-yl]-amine], the “Biochemical activity selectivity (Kit IC50/Fms IC50)” value at Fms kinase is given as over 20. In addition, the results for the IC50 on Fms kinase (setting [1]) and on BCR-KIT/BaF3 cells were under 0.1 µM and over 0.1 µM, respectively.
For `Cc1cnc2[nH]cc(Cc3cnc(NCc4ccc(C(F)(F)F)nc4)c(F)c3)c2c1` [Compound P-2146, [3-Fluoro-5-(5-methyl-1H-pyrrolo[2,3-b]pyridin-3-ylmethyl)-pyridin-2-yl]-(6-trifluoromethyl-pyridin-3-ylmethyl)-amine], in that order: under 20, under 0.1 µM and over 0.1 µM.
As for `COc1cnc2[nH]cc(Cc3cnc(NCc4ccc(C(F)(F)F)nc4)c(F)c3)c2c1` [Compound P-2147, [3-Fluoro-5-(5-methoxy-1H-pyrrolo[2,3-b]pyridin-3-ylmethyl)-pyridin-2-yl]-(6-trifluoromethyl-pyridin-3-ylmethyl)-amine], on Fms kinase, the “Biochemical activity selectivity (Kit IC50/Fms IC50)” value is under 20. Also, the IC50 at Fms kinase (setting [1]) and on BCR-KIT/BaF3 cells was under 0.1 µM each time.
For `Cc1cnc2[nH]cc(Cc3cnc(NCc4cccnc4OC4CCCC4)nc3)c2c1` [Compound P-2148, (2-Cyclopentyloxy-pyridin-3-ylmethyl)-[5-(5-methyl-1H-pyrrolo[2,3-b]pyridin-3-ylmethyl)-pyrimidin-2-yl]-amine], the “Biochemical activity selectivity (Kit IC50/Fms IC50)” value on Fms kinase is given as under 20. Further, the IC50 is under 0.1 µM on Fms kinase (setting [1]) and over 0.1 µM at BCR-KIT/BaF3 cells.
For `COc1ccc(CNc2ncc(Cc3c[nH]c4ncc(Cl)cc34)s2)cn1` [Compound P-2154, [5-(5-Chloro-1H-pyrrolo[2,3-b]pyridin-3-ylmethyl)-thiazol-2-yl]-(6-methoxy-pyridin-3-ylmethyl)-amine], in that order: under 20, under 0.1 µM and over 0.1 µM.
For `Cn1cc(F)cc(CNc2ncc(Cc3c[nH]c4ncc(Cl)cc34)cn2)c1=O` [Compound P-2157, 3-{[5-(5-Chloro-1H-pyrrolo[2,3-b]pyridin-3-ylmethyl)-pyrimidin-2-ylamino]-methyl}-5-fluoro-1-methyl-1H-pyridin-2-one], the “Biochemical activity selectivity (Kit IC50/Fms IC50)” value on Fms kinase is listed as under 20. Further, the IC50 at Fms kinase (setting [1]) and at BCR-KIT/BaF3 cells was over 0.1 µM each time.
Regarding `COc1cccc(CNc2ncc(Cc3c[nH]c4ncc(Cl)cc34)s2)n1` [Compound P-2163, [5-(5-Chloro-1H-pyrrolo[2,3-b]pyridin-3-ylmethyl)-thiazol-2-yl]-(6-methoxy-pyridin-2-ylmethyl)-amine], the “Biochemical activity selectivity (Kit IC50/Fms IC50)” value at Fms kinase is on record as under 20. The IC50 on Fms kinase (setting [1]) was under 0.1 µM; at BCR-KIT/BaF3 cells, over 0.1 µM.
For the compound `COc1ncc(CNc2ccc(Cc3c[nH]c4ncc(Cl)cc34)c(F)n2)cc1F` [Compound P-2165, [5-(5-Chloro-1H-pyrrolo[2,3-b]pyridin-3-ylmethyl)-6-fluoro-pyridin-2-yl]-(5-fluoro-6-methoxy-pyridin-3-ylmethyl)-amine], the IC50 at Fms kinase (100 μM ATP, read-out: Biochemical (IC50 μM) Fms) was under 0.1 µM; on Fms kinase (setting [1]), under 0.1 µM; on BCR-KIT/BaF3 cells, over 0.1 µM. Moreover, the “Biochemical activity selectivity (Kit IC50/Fms IC50)” value on Fms kinase is over 20.
For `Fc1cc(Cc2c[nH]c3ncc(Cl)cc23)cnc1NCc1ccc(C(F)(F)F)nc1` [Compound P-2172, [5-(5-Chloro-1H-pyrrolo[2,3-b]pyridin-3-ylmethyl)-3-fluoro-pyridin-2-yl]-(6-trifluoromethyl-pyridin-3-ylmethyl)-amine], the “Biochemical activity selectivity (Kit IC50/Fms IC50)” value on Fms kinase is under 20. Further, the IC50 on Fms kinase (setting [1]) and at BCR-KIT/BaF3 cells was under 0.1 µM in each case.
Regarding `Fc1cncc(CNc2ncc(Cc3c[nH]c4ncc(Cl)cc34)cn2)c1` [Compound P-2176, [5-(5-Chloro-1H-pyrrolo[2,3-b]pyridin-3-ylmethyl)-pyrimidin-2-yl]-(5-fluoro-pyridin-3-ylmethyl)-amine], on Fms kinase, the “Biochemical activity selectivity (Kit IC50/Fms IC50)” value is reported as over 20. Also, the figures for the IC50 on Fms kinase (setting [1]) and on BCR-KIT/BaF3 cells were under 0.1 µM and over 0.1 µM, respectively.
For `CCS(=O)(=O)Nc1ccccc1CNc1ccc(Cc2c[nH]c3ncc(C)cc23)c(F)n1` [Compound P-2198, Ethanesulfonic acid (2-{[6-fluoro-5-(5-methyl-1H-pyrrolo[2,3-b]pyridin-3-ylmethyl)-pyridin-2-ylamino]-methyl}-phenyl)-amide], in that order: under 20, under 0.1 µM and over 0.1 µM.
Regarding `CCS(=O)(=O)Nc1cc(F)cc(CNc2ccc(Cc3c[nH]c4ncc(C)cc34)c(F)n2)c1` [Compound P-2202, Ethanesulfonic acid (3-fluoro-5-{[6-fluoro-5-(5-methyl-1H-pyrrolo[2,3-b]pyridin-3-ylmethyl)-pyridin-2-ylamino]-methyl}-phenyl)-amide], the “Biochemical activity selectivity (Kit IC50/Fms IC50)” value at Fms kinase is reported as under 20. The values for the IC50 at Fms kinase (setting [1]) and at BCR-KIT/BaF3 cells were under 0.1 µM and over 0.1 µM, respectively.

For the origin of these results see US9096593B2, “Compounds and methods for kinase modulation, and indications therefor” (Plexxikon Inc., priority 2009, dated 2015).
